The text below walks through data of US11179368B2, “Substituted indoline derivatives as dengue viral replication inhibitors” (JANSSEN PHARMACEUTICALS, INC., priority 2017, dated 2021).

For data set [1], the system named is DENV-2 16681 strain. The experiment in a line: DENV-2 antiviral assay (eGFP-labeled virus in Vero cells). It is filed as cell-based, Dengue virus. The note with it: for EC50: DENV-2 16681 eGFP, Vero cells, MOI 0.5, 3 days; for SI: SI=CC50/EC50, DENV-2 antiviral assay.
The test system of data set [2] is DENV-1 strain TC974#666. The data set is described as follows: Tetravalent RT-qPCR assay, serotype 1. It is filed as cell-based, Dengue virus. The note with it: for EC50: Dengue virus, DENV1, 72 h, RT-qPCR serotype 1 TC974#666, Vero cells, day 3; for SI: RT-qPCR serotype 1 TC974#666. The method, then: (§1) The antiviral activity of the compounds of the invention was tested against DENV-1 strain TC974#666 (NCPV), DENV-2 strain 16681, DENV-3 strain H87 (NCPV) and DENV-4 strain H241 (NCPV) in a RT-qPCR assay. Therefore, Vero cells were infected with either DENV-1, or -2, or -3, or -4 in the presence or absence of test compounds. At day 3 post-infection, the cells were lysed and cell lysates were used to prepare cDNA of both a viral target (the 3′UTR of DENV; Table 2) and a cellular reference gene (1-actin, Table 2). Subsequently, a duplex real time PCR was performed on a Lightcycler480 instrument. The generated Cp value is inversely proportional to the amount of RNA expression of these targets. Inhibition of DENV replication by a test compound results in a shift of Cp's for the 3′UTR gene. On the other hand, if a test compound is toxic to the cells, a similar effect on β-actin expression will be observed. The comparative ΔΔCp method is used to calculate EC50, which is based on the relative gene expression of the target gene (3′UTR) normalized with the cellular housekeeping gene (β-actin). In addition, CC50 values are determined based on the Cp values acquired for the housekeeping gene β-actin.
(§2) The culture medium consisted of minimal essential medium supplemented with 2% of heat-inactivated fetal calf serum, 0.04% gentamycin (50 mg/mL) and 2 mM of L-glutamine. Vero cells, obtained from ECACC, were suspended in culture medium and 75 μL/well was added in 96-well plates (10000 cells/well), which already contain the antiviral compounds. […] In addition, each plate contains wells which are assigned as virus controls (containing cells and virus in the absence of compound) and cell controls (containing cells in the absence of virus and compound). Once the cells were added in the plates, the plates were incubated in a fully humidified incubator (37° C., 5% CO2) until the next day. Dengue viruses serotype-1, 2, 3 and 4 were diluted in order to obtain a Cp of ˜22-24 in the assay. Therefore, 25 μL of virus suspension was added to all the wells containing test compound and to the wells assigned as virus control. In parallel, 25 μL of culture medium was added to the cell controls. Next, the plates were incubated for 3 days in a fully humidified incubator (37° C., 5% CO2). After 3 days, the supernatant was removed from the wells and the cells were washed twice with ice-cold PBS (˜100 μL). The cell pellets within the 96-well plates were stored at −80° C. for at least 1 day. Next, RNA was extracted using the Cells-to-CT™ lysis kit, according to the manufacturer's guideline (Life Technologies). The cell lysates can be stored at −80° C. or immediately used in the reverse transcription step.
(§3) In preparation of the reverse transcription step, mix A (table 3A) was prepared and 7.57 μL/well was dispensed in a 96-well plate. After addition of 5 μL of the cell lysates, a five minute denaturation step at 75° C. was performed (table 3B). Afterwards, 7.43 μL of mix B was added (table 3C) and the reverse transcription step was initiated (table 3D) to generate cDNA.
(§4) Finally, a RT-qPCR mix was prepared, mix C (table 4A), and 22.02 μL/well was dispensed in 96-well LightCycler qPCR plates to which 3 μL of cDNA was added and the qPCR was performed according to the conditions in table 4B on a LightCycler 480.
(§5) Using the LightCycler software and an in-house LIMS system, dose response curves for each compound were calculated and the half maximal effective concentration (EC50) and the half maximal cytotoxic concentration (CC50) were determined (Tables 5-8).
In general terms: Quantitative PCR measures a nucleic acid by following its amplification.

Data set [3] has as its system DENV-2 strain 16681. The experiment in a line: Tetravalent RT-qPCR assay, serotype 2. In kind it is cell-based, Dengue virus. The note with it: for EC50: Dengue virus, DENV2, 72 h, RT-qPCR serotype 2 16681, Vero cells, day 3; for SI: RT-qPCR serotype 2 16681. The method, then: as §1, §2, §3, §4, §5
Data set [4] concerns DENV-3 strain H87. The experiment in a line: Tetravalent RT-qPCR assay, serotype 3. In kind it is cell-based, Dengue virus. The note with it: for EC50: Dengue virus, DENV3, 72 h, RT-qPCR serotype 3 H87, Vero cells, day 3; for SI: RT-qPCR serotype 3 H87. The method, then:
as §1, §2, §3, §4, §5

The subject of data set [5] is DENV-4 strain H241. The experiment in a line: Tetravalent RT-qPCR assay, serotype 4. It is filed as cell-based, Dengue virus. The note with it: for EC50: Dengue virus; for SI: RT-qPCR serotype 4 H241. The method, then: as §1, §2, §3, §4, §5
Data set [6] is described as follows: in vitro. It is filed as cell-based. The note with it: African green monkey, CC50. The method, then:
as §1, §2, §3, §4, §5

The subject of data set [7] is Vero cells. The experiment in a line: in vitro. In kind it is cell-based. The following applies: African green monkey, 3 days. The method, then:
as §1, §2, §3, §4, §5

The subject of data set [8] is Vero cells. The note with it: African green monkey.
Data set [9] can be described thus: in vitro. The note with it: African green monkey.
The mark [10] stands for this setting: DENV4, 72 h, RT-qPCR serotype 4 H241, Vero cells, day 3, read-out: EC50.

In general, EC50 refers to the midpoint of the concentration-response curve. Broadly, the melting point is the temperature of the solid-liquid transition.

Structures are written as SMILES. Where a name gives a salt, the structure may show the parent alone. Read-outs that look alike come from different tables or passages of the source. Bounds are passed on as bounds.

Take `COc1cc(NC(C(=O)N2CCc3ccc(C(F)(F)F)cc32)c2ccc(Cl)cc2OCCCC(=O)O)cc(S(C)(=O)=O)c1` (single isomer, unassigned) [Compound 7B]: the 50% effective concentration (EC50) in data set [1] worked out at 0.25 nM; in data set [2], 0.13 nM; in data set [3], 0.19 nM; in [4], 5.2 nM; in data set [5] (setting [10]) it was 24 nM. Further, the SI is 90600 in [1]; greater than 19200 in [2]; greater than 13500 in data set [3]; greater than 473 in data set [4]; greater than 186 in [5]. In addition, the CC50 at 3 days in data set [6] is greater than 2500 nM. Also, the CC50 in data set [7] was greater than 2500 nM; in [8] it was 11 µM.
Consider `COc1cc(NC(C(=O)N2CCc3ccc(OC(F)(F)F)cc32)c2ccc(Cl)cc2OCCCC(=O)O)cc(S(C)(=O)=O)c1` (single isomer, unassigned) [Compound 9B], for which the EC50 in data set [1] is 0.15 nM; in data set [2], 0.1 nM; in data set [3], 0.068 nM; in data set [4] it was 1.7 nM; in data set [5] (setting [10]), 7.2 nM. In addition, the SI in data set [1] is given as 83000; in data set [2] it was greater than 45500; in [3] it was greater than 56500; in [4] it was greater than 1840; in [5], 1390. The CC50 at 3 days in data set [6] is greater than 2500 nM. Also, the CC50 in data set [8] is 13 µM.
In [1], `COc1cc(NC(C(=O)N2CCc3ccc(OC(F)(F)F)cc32)c2ccc(Cl)cc2OCCO)cc(S(C)(=O)=O)c1` (single isomer, unassigned) [Compound 6B] showed an EC50 of 20 nM and an SI of 492. In [8], the CC50 is 10 µM.
As to `COc1cc(NC(C(=O)N2CCc3ccc(C(F)(F)F)cc32)c2ccc(F)cc2OCCO)cc(S(C)(=O)=O)c1` (single isomer, unassigned) [Compound 1B], the EC50 in data set [1] is 1.4 nM; in [2], 1.5 nM; in [3] it was 1.1 nM; in [4] it was 20 nM; in data set [5] (DENV4, Vero, 72 h), 130 nM. Also, the SI in [1] is greater than 1980; in data set [2] it was greater than 2860; in data set [3], 4670; in [4] it was greater than 127; in data set [5], 23. In data set [6], this compound registered a CC50 at 3 days greater than 2500 nM. This compound yielded a CC50 in [8] of 3.4 µM.
In the case of `COc1cc(NC(C(=O)N2CCc3ccc(OC(F)(F)F)cc32)c2ccc(F)cc2OCCO)cc(S(C)(=O)=O)c1` (single isomer, unassigned) [Compound 3B], the EC50 in data set [1] amounted to 0.61 nM; in data set [2] it was 1.1 nM; in data set [3], 0.9 nM; in data set [4], 13 nM; in data set [5] (setting [10]), 72 nM. The SI in data set [1] is 16300; in [2], greater than 3640; in [3], 4760; in data set [4], greater than 444; in data set [5], greater than 32. The compound also returned a CC50 at 3 days in data set [6] greater than 2500 nM. The compound further came in with a CC50 in data set [8] of 8.7 µM.
`COc1cc(NC(C(=O)N2CCc3ccc(OC(F)(F)F)cc32)c2ccc(Cl)cc2OCCCC(=O)O)cc(S(C)(=O)=O)c1` (racemic) (as salt: HCl) (hydrate or solvate) [Compound 9, 4-(5-chloro-2-(1-((3-methoxy-5-(methylsulfonyl)phenyl)amino)-2-oxo-2-(6-(trifluoromethoxy)indolin-1-yl)ethyl)phenoxy)butanoic acid] had a melting point of 155 °C.
On to `COc1cc(NC(C(=O)N2CCc3ccc(OC(F)(F)F)cc32)c2ccc(Cl)cc2OCCO)cc(S(C)(=O)=O)c1` (single isomer, unassigned) [Compound 6A], for which the EC50 in data set [1] was 0.23 nM; in [2], 0.16 nM; in [3], 0.16 nM; in data set [4] it was 2.6 nM; in data set [5] (setting [10]), 26 nM. Besides, the SI is given as greater than 12000 in [1]; greater than 41300 in [2]; greater than 12600 in data set [3]; greater than 1480 in [4]; 119 in data set [5]. This compound also came in with a CC50 at 3 days in data set [6] greater than 2500 nM. The same compound gave a CC50 in data set [9] of 7.3 µM.
Take `COc1cc(NC(C(=O)N2CCc3cc(OC)c(C(F)(F)F)cc32)c2ccc(Cl)cc2OCCO)cc(S(C)(=O)=O)c1` (single isomer, unassigned) [Compound 5B]: the EC50 in [1] was found to be 0.23 nM; in data set [2] it was 0.94 nM; in data set [3], 0.24 nM; in [4], 6.7 nM; in data set [5] (setting [10]), 26 nM. Moreover, the SI in data set [1] is greater than 16800; in data set [2], 8640; in data set [3] it was greater than 17100; in data set [4], greater than 752; in data set [5] it was 86. In data set [8], the CC50 was 8.5 µM.
Consider `COc1cc(NC(C(=O)N2CCc3cc(OC)c(C(F)(F)F)cc32)c2ccc(Cl)cc2OCCCC(=O)O)cc(S(C)(=O)=O)c1` (single isomer, unassigned) [Compound 8B], for which the EC50 in [1] worked out at 1.2 nM; in data set [2], 1.2 nM; in data set [3], 0.3 nM; in data set [4], 19 nM; in [5] (setting [10]) it was 84 nM. In addition, the SI in data set [1] amounted to 6780; in data set [2] it was 10500; in data set [3], 54300; in data set [4] it was 796; in data set [5], 88. The CC50 in [8] was 14 µM.
In [1], `COc1cc(NC(C(=O)N2CCc3ccc(C(F)(F)F)cc32)c2ccc(F)cc2OCCO)cc(S(C)(=O)=O)c1` (single isomer, unassigned) [Compound 1A] gave an EC50 of 2400 nM and an SI of 4.8. In data set [8], this compound showed a CC50 of 12 µM.
As to `COc1cc(NC(C(=O)N2CCc3ccc(C(F)(F)F)cc32)c2ccc(Cl)cc2OCCO)cc(S(C)(=O)=O)c1` (single isomer, unassigned) [Compound 4A], the EC50 in data set [1] is 0.41 nM; in data set [2], 0.75 nM; in data set [3], 0.45 nM; in data set [4] it was 13 nM; in [5] (setting [10]), 44 nM. Further, the SI is given as 15000 in data set [1]; greater than 5470 in data set [2]; 11700 in [3]; greater than 234 in data set [4]; 69 in [5]. Moreover, in data set [6], the CC50 at 3 days was greater than 2500 nM. The CC50 in [9] is 6 µM.
